From US4081474A, “Sulfonyloxy bromoacetanilides and their utility as biocides” (Stauffer Chemical Company, priority 1976, dated 1978)
Values after ≈ are worked out from the molar mass of the structure shown. Where two headings read alike, the source gives them in different places. One block for each compound: values may come before it.

Columns and labels:
Format in all cases: cell-based
Aspergillus niger [1] = experiment: In Vitro Vial Test (malt broth); conditions: 168 h; for MIC: read-out: Lowest Effective Concentration
Penicillium italicum [2] = experiment: In Vitro Vial Test (malt broth); conditions: 168 h; for MIC: read-out: Lowest Effective Concentration; for minimal effective concentration: read-out: Lowest Effective Concentration (partial control)
Escherichia coli [3] = experiment: In Vitro Vial Test (nutrient broth); conditions: 168 h; for MIC: read-out: Lowest Effective Concentration; for minimal effective concentration: read-out: Lowest Effective Concentration (partial control)
Staphylococcus aureus [4] = experiment: In Vitro Vial Test (nutrient broth); conditions: 168 h; for MIC: read-out: Lowest Effective Concentration
Aspergillus niger [5] = experiment: Microbiocide Testing Procedure Using Agar; conditions: potato dextrose agar, 30° C., read-out: Minimum Inhibitory Concentration
Method: (§1) This test measures the bactericidal and fungicidal properties of a compound when in contact with a growing bacterium or fungi in an artificial medium. […] The treated agar mixture is then allowed to come to room temperature and solidify. Cells of the particular organism are then streaked on the surface of the solidified agar and are then incubated for such lengths of time that untreated samples containing no toxicant show luxurious growth typical of the particular organism. This time varies from 24 hours to one week, depending on the particular organism. The fungi are incubated at 30° C. and the bacteria are incubated at 37° C. Nutrient agar is used as the medium in this test for the bacteria. Potato dextrose agar is used as the medium for the fungi.

Escherichia coli [6] = experiment: Microbiocide Testing Procedure Using Agar; conditions: nutrient agar, 37° C., read-out: Minimum Inhibitory Concentration
Method: as §1

Penicillium italicum [7] = experiment: Microbiocide Testing Procedure Using Agar; conditions: potato dextrose agar, 30° C.
Method: as §1

Staphylococcus aureus [8] = experiment: Microbiocide Testing Procedure Using Agar; conditions: nutrient agar, 37° C., read-out: Minimum Inhibitory Concentration
Method: as §1

Escherichia coli [9] = experiment: Soap Plug Test; conditions: 1% in sodium stearate soap plug, 37° C., 17 hours
Staphylococcus aureus [10] = experiment: Soap Plug Test; conditions: 1% in sodium stearate soap plug, 37° C., 17 hours
Escherichia coli [11] = experiment: Detergent Formulation Test; conditions: washed cotton cloth, compounds at 0.2% in Tide detergent, 37° C.
Staphylococcus aureus [12] = experiment: Detergent Formulation Test; conditions: washed cotton cloth, compounds at 0.2% in Tide detergent, 37° C.
[13] = test system: Brevibacterium ammoniagenes; experiment: Detergent Formulation Test; conditions: washed cotton cloth, compounds at 0.2% in Tide detergent, 37° C.
[14] = test system: Trichophyton mentagrophytes; experiment: Detergent Formulation Test; conditions: washed cotton cloth, compounds at 0.2% in Tide detergent, 37° C.
[15] = malt broth, one week, value printed in: partial control at this concentration
[16] = nutrient broth, one week, value printed in: partial control at this concentration

SMILES: C=CCNC(=O)Oc1cccc(NC(=O)CBr)c1 [Compound 4]
- MIC (Aspergillus niger [1]): > 50 mg/L
- MIC (Penicillium italicum [2]): 50 mg/L (≈ 160 µM)
- MIC (Escherichia coli [3]): > 50 mg/L
- MIC (Staphylococcus aureus [4]): 50 mg/L (≈ 160 µM)

- MIC (Aspergillus niger [1]; malt broth, one week): 50 mg/L (≈ 217 µM)
- MIC (Penicillium italicum [2]; malt broth, one week): 50 mg/L (≈ 217 µM)
- MIC (Escherichia coli [3]; nutrient broth, one week): 25 mg/L (≈ 109 µM)
- MIC (Staphylococcus aureus [4]; nutrient broth, one week): 25 mg/L (≈ 109 µM)
SMILES: O=C(CBr)Nc1ccc(O)cc1 [Compound 6]

- MIC (Aspergillus niger [1]; malt broth, one week): > 50 mg/L
- MIC (Penicillium italicum [2]; malt broth, one week): 50 mg/L (≈ 135 µM)
- MIC (Escherichia coli [3]; nutrient broth, one week): > 50 mg/L
- MIC (Staphylococcus aureus [4]; nutrient broth, one week): 50 mg/L (≈ 135 µM)
SMILES: O=C(CBr)Nc1cccc(OS(=O)(=O)c2ccccc2)c1 [Compound 8, m-Phenylsulfonyloxy bromoacetanilide]
- MIC (Aspergillus niger [5]): > 50 mg/L
- MIC (Escherichia coli [6]): > 50 mg/L
- MIC (Penicillium italicum [7]; read-out: Minimum Inhibitory Concentration): 50 mg/L (≈ 135 µM)
- MIC (Staphylococcus aureus [8]): 10 mg/L (≈ 27 µM)

SMILES: CC(C)NC(=O)Oc1cccc(NC(=O)CBr)c1 [Compound 3]
- minimal effective concentration (Aspergillus niger [1]; read-out: Lowest Effective Concentration (partial control)): 100 µg/mL
- minimal effective concentration (Penicillium italicum [2]): 25 µg/mL
- MIC (Escherichia coli [3]): 25 mg/L (≈ 79.3 µM)
- MIC (Staphylococcus aureus [4]): 10 mg/L (≈ 31.7 µM)
- Zone of Biological Inhibition (radius) (Escherichia coli [9]): 2 mm
- Zone of Biological Inhibition (radius) (Staphylococcus aureus [10]): 6-8 mm

- MIC (Aspergillus niger [1]; malt broth, one week): > 500 mg/L
SMILES: O=C(CCl)Nc1cccc(O)c1 [A, reference compound]
- minimal effective concentration (Penicillium italicum [2]; [15]): 500 µg/mL
- minimal effective concentration (Escherichia coli [3]; [16]): 250 µg/mL
- minimal effective concentration (Staphylococcus aureus [4]; nutrient broth, one week, value printed in: partial control at this concentration, read-out: Lowest Effective Concentration (partial control)): 250 µg/mL

- MIC (Aspergillus niger [1]; malt broth, one week): 100 mg/L (≈ 435 µM)
- MIC (Staphylococcus aureus [4]; nutrient broth, one week): 10 mg/L (≈ 43.5 µM)
SMILES: O=C(CBr)Nc1cccc(O)c1 [Compound 1, 3'-hydroxybromoacetanilide]
- minimal effective concentration (Penicillium italicum [2]; [15]): 25 µg/mL
- minimal effective concentration (Escherichia coli [3]; [16]): 10 µg/mL
- Zone of Biological Inhibition (radius) (Escherichia coli [9]): 2 mm
- Zone of Biological Inhibition (radius) (Staphylococcus aureus [10]): 12-15 mm
- Zone of Biological Inhibition (radius) (Escherichia coli [11]): 2 mm
- Zone of Biological Inhibition (radius) (Staphylococcus aureus [12]): 3 mm
- Zone of Biological Inhibition (radius) [13]: 0 mm
- Zone of Biological Inhibition (radius) [14]: 1 mm

SMILES: CC(C)NC(=O)Oc1cccc(NC(=O)CCl)c1 [B, reference compound]
- MIC (Aspergillus niger [1]): > 500 mg/L
- MIC (Penicillium italicum [2]): > 500 mg/L
- MIC (Escherichia coli [3]): > 500 mg/L
- MIC (Staphylococcus aureus [4]): > 500 mg/L

- MIC (Aspergillus niger [1]; malt broth, one week): > 50 mg/L
- MIC (Penicillium italicum [2]; malt broth, one week): 50 mg/L (≈ 143 µM)
- MIC (Escherichia coli [3]; nutrient broth, one week): > 50 mg/L
- MIC (Staphylococcus aureus [4]; nutrient broth, one week): 50 mg/L (≈ 143 µM)
SMILES: CC(C)CS(=O)(=O)Oc1cccc(NC(=O)CBr)c1 [Compound 7, m-Isobutylsulfonyloxy bromoacetanilide]
- MIC (Aspergillus niger [5]): > 50 mg/L
- MIC (Escherichia coli [6]): > 50 mg/L
- MIC (Penicillium italicum [7]; value printed in, not explained in Table III (Table II: partial control), read-out: Minimum Inhibitory Concentration (value in parentheses)): 10 mg/L (≈ 28.6 µM)
- MIC (Staphylococcus aureus [8]): 50 mg/L (≈ 143 µM)

SMILES: CNC(=O)Oc1cccc(NC(=O)CBr)c1 [Compound 2, 3'-N-methyl carbamoyloxy bromoacetanilide]
- MIC (Aspergillus niger [1]): > 50 mg/L
- MIC (Penicillium italicum [2]): > 50 mg/L
- MIC (Escherichia coli [3]): 50 mg/L (≈ 174 µM)
- MIC (Staphylococcus aureus [4]): 50 mg/L (≈ 174 µM)

SMILES: O=C(CBr)Nc1cccc(OC(=O)NC2CCCCC2)c1 [Compound 5]
- MIC (Aspergillus niger [1]): > 50 mg/L
- minimal effective concentration (Penicillium italicum [2]): 50 µg/mL
- minimal effective concentration (Escherichia coli [3]): 50 µg/mL
- MIC (Staphylococcus aureus [4]): 50 mg/L (≈ 141 µM)

SMILES: O=C(Nc1ccc(Cl)cc1)Nc1ccc(Cl)c(Cl)c1 [TCC, 3,4,4-trichlorocarbanilide, reference compound]
- Zone of Biological Inhibition (radius) (Escherichia coli [9]): 0 mm
- Zone of Biological Inhibition (radius) (Staphylococcus aureus [10]): 5 mm
